Consider one substance from US5405869A, “Anti-tumor platinum complexes” (Istituto Nazionale per la Ricerca sul Cancro, priority 1991, dated 1995).

One test relates to leukemia cells K562. To be noted: read-out: ID50; K562, incorporation of tritiated thymidine at 48 hours. The procedure:
(§1) The evaluation of the cytotoxic activities of the compounds (1) was carried out "in vitro" measuring, according to known methods, the inhibition of the colony formation, the cell viability (Trypan blu) and the incorporation of tritiated thymidine in tumoral and normal cells.

Another test deals with leukemia cells Jurkat. To be noted: read-out: ID50, incorporation of tritiated thymidine at 48 hours. The protocol:
as §1

A further test has as its system leukemia cells P388. To be noted: read-out: ID50; P388, incorporation of tritiated thymidine at 48 hours. The procedure: as §1

With “cis-diamino-chloro-(4-amino)benzoate-platinum(II) hydrochloride [Compound 1A]”, the IC50 in the test on leukemia cells K562 was found to be 26.3 µM; in the test with leukemia cells Jurkat, 21.3 µM; in the test on leukemia cells P388, 11.4 µM.
